Reference: patent US20170088546A1 (priority 2014, published 2017)
pIC50: −log10 of the molar value. Like-named read-outs stand apart in the source and are kept apart here.

Columns and labels:
Smurf-1 = Smurf-1 (Homo sapiens, UniProt Q9HCE7); test: biochemical; assay type: biochemical
Description: (§1) To determine the HECT E3 ligase selectivity of the compounds, a panel of biochemical HECT E3 ligase autoubiquitinylation assays was employed (Smurf-1, Smurf-2, WWP1, WWP2, ITCH, Nedd4, Nedd4L and E6AP). The conjugation of ubiquitin to a protein substrate is a multistep process. In an initial ATP-requiring step, a thioester bond is formed between the carboxyl terminus of ubiquitin and an internal cystein residue of the ubiquitin-activating enzyme (E1). Activated ubiquitin is then transferred to a specific cystein residue of an ubiquitin-conjugating enzyme (E2). E2s donate ubiquitin to a HECT E3 ligase (E3) from which it is transferred to the substrate protein. HECT E3 ligases can auto-ubiquitinylate. This event is detected in the TR-FRET (Time-Resolved Fluorescence Resonance Energy Transfer) assay used in this panel. The reaction mix contains E1, E2, tagged-E3, biotin-conjugated ubiquitin, the compound and ATP in a suitable buffer and is incubated for 45 minutes to allow auto-ubiquitinylation of the E3 ligase. To measure the extent of ubiquitinylated E3 ligase by TR-FRET, the donor fluorophore Europium cryptate (Eu3+ cryptate), conjugated to streptavidin which subsequently binds to biotinylated ubiquitin, and the modified allophycocyanin XL665 (HTRF® primary acceptor fluorophore) coupled to a tag-specific antibody (HA, His or GST), which recognizes the respective E3 ligase fusion proteins, are added after the reaction is complete. When these two fluorophores are brought together by a biomolecular interaction (in this case ubiquitinylation of the E3 ligase), a portion of the energy captured by the Cryptate during excitation is released through fluorescence emission at 620 nm, while the remaining energy is transferred to XL665. This energy is then released by XL665 as specific fluorescence at 665 nm. Light at 665 nm is emitted only through FRET with Europium.
(§2) Test and reference compounds are prepared at 180×[final] in 90% DMSO, and diluted 1:3 in 90% DMSO.
(§3) For the biochemical assay panel, 50 nl of the test compounds, reference compounds and buffer/DMSO control are transferred to the respective wells of a 384-well white GREINER “SMALL VOLUME” PS plate. The assay panel is run at room temperature on a Biomek FX liquid handling workstation. To the assay plates containing 50 nl compound or control solutions in 90% DMSO, 4.5 ul of E3 ligase solution were added per well, followed by 4.5 ul of the pre-incubated E1/E2/Ub mix or the pre-diluted ubiquitin (LOW control). Plates are shaken vigorously after each addition. In this assay the compound concentrations range from 3 nM to 10 uM in an 8-point dose-response curve.
(§4) After an incubation time of 45 min in the dark, the plates are transferred into the Pherastar fluorescence reader to measure the TR-FRET signal.

Smurf-2 = Smurf-2 (Homo sapiens, UniProt Q9HAU4); test: HECT E3 ligase autoubiquitinylation TR-FRET assay, Smurf-2; assay type: biochemical
Description: as §1, §2, §3, §4

[1] = biochemical autoubiquitinylation TR-FRET, 45 min incubation, 8-point dose-response 3 nM to 10 uM
[2] = biochemical autoubiquitinylation TR-FRET, 45 min incubation, 8-point dose-response 3 nM to 10 uM, read-out: Smurf-2/IC50

Smurf-2, sequence (Q9HAU4 whole entry, species assumed): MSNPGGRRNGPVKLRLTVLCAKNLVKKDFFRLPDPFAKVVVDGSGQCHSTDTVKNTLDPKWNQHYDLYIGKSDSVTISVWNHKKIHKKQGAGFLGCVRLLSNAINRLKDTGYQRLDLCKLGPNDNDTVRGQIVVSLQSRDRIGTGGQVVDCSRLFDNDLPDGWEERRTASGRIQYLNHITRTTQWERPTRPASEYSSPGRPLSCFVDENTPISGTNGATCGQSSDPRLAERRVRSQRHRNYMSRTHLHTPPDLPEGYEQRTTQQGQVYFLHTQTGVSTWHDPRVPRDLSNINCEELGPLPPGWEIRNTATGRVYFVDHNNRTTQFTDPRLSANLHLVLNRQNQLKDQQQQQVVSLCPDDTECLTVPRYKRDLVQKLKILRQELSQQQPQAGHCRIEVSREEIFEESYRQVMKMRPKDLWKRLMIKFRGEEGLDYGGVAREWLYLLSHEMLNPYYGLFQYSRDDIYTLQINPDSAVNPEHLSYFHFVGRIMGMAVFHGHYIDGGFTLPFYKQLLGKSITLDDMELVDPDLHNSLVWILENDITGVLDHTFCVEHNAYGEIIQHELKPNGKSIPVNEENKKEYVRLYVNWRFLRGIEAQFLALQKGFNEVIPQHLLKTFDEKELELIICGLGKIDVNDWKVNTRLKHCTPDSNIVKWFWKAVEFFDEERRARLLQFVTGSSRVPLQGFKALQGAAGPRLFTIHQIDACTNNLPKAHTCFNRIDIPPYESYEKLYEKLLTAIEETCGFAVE
Smurf-1, sequence (Q9HCE7 whole entry): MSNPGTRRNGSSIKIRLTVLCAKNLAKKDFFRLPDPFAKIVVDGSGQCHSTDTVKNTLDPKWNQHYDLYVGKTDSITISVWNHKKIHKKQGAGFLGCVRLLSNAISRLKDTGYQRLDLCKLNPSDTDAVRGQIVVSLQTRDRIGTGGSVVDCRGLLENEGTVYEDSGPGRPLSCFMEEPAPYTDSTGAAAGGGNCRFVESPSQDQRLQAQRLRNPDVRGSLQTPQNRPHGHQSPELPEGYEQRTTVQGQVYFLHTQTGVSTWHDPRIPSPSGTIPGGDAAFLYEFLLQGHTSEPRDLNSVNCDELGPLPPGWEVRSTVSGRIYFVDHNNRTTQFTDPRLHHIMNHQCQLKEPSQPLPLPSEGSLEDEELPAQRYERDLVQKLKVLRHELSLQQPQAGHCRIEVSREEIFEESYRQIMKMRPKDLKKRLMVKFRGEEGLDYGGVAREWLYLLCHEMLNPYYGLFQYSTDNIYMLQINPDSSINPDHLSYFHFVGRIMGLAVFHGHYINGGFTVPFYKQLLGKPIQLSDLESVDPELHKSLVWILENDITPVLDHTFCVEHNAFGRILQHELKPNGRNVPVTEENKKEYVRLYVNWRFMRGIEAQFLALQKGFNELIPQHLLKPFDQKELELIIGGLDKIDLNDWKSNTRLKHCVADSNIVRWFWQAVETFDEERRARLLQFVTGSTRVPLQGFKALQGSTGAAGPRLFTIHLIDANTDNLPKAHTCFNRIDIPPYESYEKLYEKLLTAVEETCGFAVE

Row | pIC50 (Smurf-1) | SMILES | pIC50 (Smurf-1; [1]) | pIC50 (Smurf-2) | pIC50 (Smurf-2; [2])
1 |  | COc1ccc2c(c1)CCCc1c(C(=O)Nc3c(C(F)(F)F)n(C)n(-c4ccccc4)c3=O)noc1-2 [Example 38, 8-methoxy-N-(1-methyl-3-oxo-2-phenyl-5-(trifluoromethyl)-2,3-dihydro-1H-pyrazol-4-yl)-5,6-dihydro-4H-benzo[3,4]cyclohepta[1,2-d]isoxazole-3-carboxamide] | 6.06 | < 5.00 | 
2 |  | Cc1c(NC(=O)c2noc3c2CCCc2cc(OC(F)(F)F)ccc2-3)c(=O)n(-c2ccccc2)n1C [Example 39, N-(1,5-dimethyl-3-oxo-2-phenyl-2,3-dihydro-1H-pyrazol-4-yl)-8-(trifluoromethoxy)-5,6-dihydro-4H-benzo[3,4]cyclohepta[1,2-d]isoxazole-3-carboxamide] | 6.70 |  | 5.26
3 |  | Cc1c(NC(=O)c2noc3c2CCCc2cc(OC(F)(F)F)ccc2-3)c(=O)n(-c2c(Cl)cccc2Cl)n1C [Example 41, N-(2-(2,6-dichlorophenyl)-1,5-dimethyl-3-oxo-2,3-dihydro-1H-pyrazol-4-yl)-8-(trifluoromethoxy)-5,6-dihydro-4H-benzo[3,4]cyclohepta[1,2-d]isoxazole-3-carboxamide] | 8.35 |  | 6.41
4 |  | Cc1c(NC(=O)c2noc3c2CCCc2cc(OC(F)(F)F)ccc2-3)c(=O)n(C2CCCCC2)n1C [Example 45, N-(2-cyclohexyl-1,5-dimethyl-3-oxo-2,3-dihydro-1H-pyrazol-4-yl)-8-(trifluoromethoxy)-5,6-dihydro-4H-benzo[3,4]cyclohepta[1,2-d]isoxazole-3-carboxamide] | 8.66 |  | 6.76
5 |  | Cc1c(NC(=O)c2noc3c2CCSc2cc(OC(F)(F)F)ccc2-3)c(=O)n(-c2ccccc2F)n1C [Example 46, N-(2-(2-fluorophenyl)-1,5-dimethyl-3-oxo-2,3-dihydro-1H-pyrazol-4-yl)-8-(trifluoromethoxy)-4,5-dihydrobenzo[6,7]thiepino[4,5-d]isoxazole-3-carboxamide] | 7.50 | < 5.00 | 
6 |  | Cc1c(NC(=O)c2noc3c2CCSc2ccccc2-3)c(=O)n(-c2ccccc2)n1C [Example 47, N-(1,5-dimethyl-3-oxo-2-phenyl-2,3-dihydro-1H-pyrazol-4-yl)-4,5-dihydrobenzo[6,7]thiepino[4,5-d]isoxazole-3-carboxamide] | 5.95 | < 5.00 | 
7 |  | Cc1c(NC(=O)c2noc3c2CC2C(c4ccccc4-3)C2(Cl)Cl)c(=O)n(-c2ccccc2)n1C (stereo not shown) [Example 50, 9,9-dichloro-N-(1,5-dimethyl-3-oxo-2-phenyl-2,3-dihydro-1H-pyrazol-4-yl)-8,8a,9,9a-tetrahydrobenzo[3,4]cyclopropa[5,6]cyclohepta[1,2-d]isoxazole-7-carboxamide] | 6.33 | < 5.00 | 
8 |  | Cc1c(NC(=O)c2noc3c2CCCCc2ccccc2-3)c(=O)n(-c2ccccc2)n1C [Example 51, N-(1,5-dimethyl-3-oxo-2-phenyl-2,3-dihydro-1H-pyrazol-4-yl)-4,5,6,7-tetrahydrobenzo[3,4]cycloocta[1,2-d]isoxazole-3-carboxamide] | 6.18 | < 5.00 | 
9 |  | COc1ccc2c(c1)CCCCc1c(C(=O)Nc3c(C)n(C)n(-c4ccccc4F)c3=O)noc1-2 [Example 53, N-(2-(2-fluorophenyl)-1,5-dimethyl-3-oxo-2,3-dihydro-1H-pyrazol-4-yl)-9-methoxy-4,5,6,7-tetrahydrobenzo[3,4]cycloocta[1,2-d]isoxazole-3-carboxamide] | 6.88 | < 5.00 | 
10 | 6.72 | COc1ccc2c(c1)OCCCc1c(C(=O)Nc3c(C)n(C)n(C4CCCCC4)c3=O)noc1-2 [Example 54, N-(2-cyclohexyl-1,5-dimethyl-3-oxo-2,3-dihydro-1H-pyrazol-4-yl)-9-methoxy-5,6-dihydro-4H-benzo[2,3]oxocino[5,4-d]isoxazole-3-carboxamide] |  | < 5.00 | 
11 |  | COc1ccc(Cn2c(=O)c(NC(=O)c3noc4c3CCCc3cc(OC)ccc3-4)c(C)n2C)cc1 [Example 55, 8-methoxy-N-(2-(4-methoxybenzyl)-1,5-dimethyl-3-oxo-2,3-dihydro-1H-pyrazol-4-yl)-5,6-dihydro-4H-benzo[3,4]cyclohepta[1,2-d]isoxazole-3-carboxamide] | 5.00 | < 5.00 | 
